Experimental data as given in patent US20220288277A1, “SURFACE COATINGS AND IMPLANTABLE DEVICES COMPRISING DIMERIC STEROID PRODRUGS, AND USES THEREOF” (Ripple Therapeutics Corporation, priority 2019, published 2022).

What was measured:
[1] = system: device related foreign body reaction in the rat subcutaneous model; test: Rat study of coated substrates, morphometric image analysis of CD68 stained cross-sections; assay type: in vivo, female Wistar rats; conditions: spray coated thin films or drop coated discs, days 3 and 7, compared to non-coated substrates
Experimental: Compound 1 was dissolved in acetone and spray coated onto thin films of a polymeric substrate or drop coated onto discs of a different polymeric substrate. Both coatings were dried at ambient conditions over night and sterilized using Ethylene oxide (ETO) gas. Coated substrates were then implanted into the dorsal subcutaneous space in female Wistar rats with starting weights of 250-290 g. Animals were euthanized at the peak of inflammatory phase in days 3 and 7. The cells in the surrounding area of both substrates were assessed by morphometric image analysis on cross-section of excised substrates with associated tissue that were stained for CD68 (inflammatory cell marker), ASMA (fibroblast marker) and DAPI ([…]). The number of recruited CD68 positive cells were reduced in response to both substrates coated with compound 1 compared to non-coated substrates. Thus, compound 1 suppresses inflammation in device related foreign body reaction and fibrosis in the rat subcutaneous model regardless of coating method or substrate.

[2] = Coating retention / drug release from coated substrates in 100% FBS at 37 C, HPLC; assay type: physicochemical
Experimental: Compound 1 was drop coated with the same total amount of compound 1 from an organic solution (acetone) onto SIBS films, Dacron films, and fibrous Dacron meshes, and drug release was carried out in 100% FBS at 37 C. The coating was extracted from the substrates at different time points and was plotted as a percentage of coating retained over time (FIG. 4).
Substrates coated with Compound 1 by drop coating or spray coating were incubated in fetal bovine serum (FBS) to determine the amount of Compound 1 retained over time. Each coated substrate was placed in a glass vial containing 4 mL FBS and incubated at 37° C. on a rotating platform. After 1 to 4 days, the remaining coating was extracted and was determined by HPLC (FIG. 9). The amount of Compound 1 retained following 1-day incubation in FBS ranged from 15 to 100% of the initial amount loaded and roughly correlated with thickness (total loading) of the coating.
Drug release was carried out in 100% FBS and agitation at 37 C with buffer changes and was monitored by HPLC.

[3] = Ethylene oxide (ETO) gas sterilization of coated fibrous Dacron meshes, purity and drug release pre- and post-ETO; assay type: physicochemical; conditions: ETO gas at 55° C.
Experimental: Compound 1 coated onto fibrous Dacron meshes were sterilized by ethylene oxide (ETO) gas at a temperature of 55° C. […] Drug release was carried out in PBS at 37 C.

[4] = In vitro drug release profiles from coated discs; assay type: physicochemical; conditions: coated discs (FIG. 18B)
[5] = Drug release profiles of heat press versus spray coated surface coatings; assay type: physicochemical; conditions: similar drug densities (8.2-8.3 μg/mm^2)
Experimental: Drug release profiles from Compound 1 surface coatings with similar drug densities (8.2-8.3 μg/mm^2) formed from the heat press process and spray coating process were similar (FIG. 16B), confirming that drug release is a material property and not influenced by coating technique.

[6] = Drug release from coated surfaces and extruded cylinders in PBS at 37 C, monitored by HPLC; assay type: physicochemical
Description: As stated herein, “t50” is the time at which 50% of the releasable drug has been released from a surface coating or drug depot of the disclosure. Time t10 is, correspondingly, the time at which 10% of the releasable drug has been released from a surface coating or drug depot of the disclosure. When the release curve is perfectly linear, t10=⅕ of t50. When there is an initial burst of released drug, t10 is much less than ⅕ of t50. In the compositions and methods of the disclosure t10 can be equal to or greater than 1/10 of t50. Drug release from a surface coating, drug depot, or compound of the disclosure can be measured at 37° C. in 100% bovine serum, or at 37° C. in PBS (phosphate buffered saline), as described in Example 1.
Different substrates including poly(styrene-block-isobutylene-block-styrene) (SIBS) films, titanium coupons, and fibrous Dacron (polyethylene terephthalate) meshes (FIG. 2A) were coated with compound 1 from acetone by drop coating (FIG. 2B) forming an amorphous (glassy) coating. […] The bottom of a glass vial was coated with compound 1 and dexamethasone from dichloromethane (DCM) using the drop coating method.
Compound 2 was dissolved in DCM and was drop coated onto the bottom of a glass vial and solvent was evaporated to form the surface coating. Drug release was carried out in PBS at 37 C with buffer changes and was monitored by HPLC.
Compound 3 was dissolved in DCM and was drop coated onto the bottom of a glass vial and solvent was evaporated to form the surface coating. Drug release was carried out in PBS at 37 C with buffer changes and was monitored by HPLC.
Compound 1 was formed into cylinders by heat extrusion from the intermediate glassy state by pre-melting compound 1 prior to extrusion. In vitro drug release was carried out in PBS at 37 C and drug release was quantified by HPLC. […] The cylinders can be used as a drug depot within a medical device or injected adjacent to the medical device to release dexamethasone.

[7] = Drug release from injectable cylinders in the subcutaneous tissue of rats; assay type: in vivo, male Sprague Dawley rats; conditions: cylinders 23G-32G, 2 mm, subcutaneous with suture, 7 and 28 days
Experimental: Cylinders of Compound 1 in various diameters (23G-32G) and 2 mm in length were processed as described in Example 1 and were loaded into needles with a piece of medical sutures as shown in FIG. 21A. The loaded needles were sterilized by ethylene oxide gas. The cylinders and sutures were injected into the dorsal subcutaneous space of male Sprague Dawley rats with starting weights of 100-124 g (Envigo, Frederick, Md. USA). Animals were euthanized at 7 and 28 days and the skin surrounding the injection sites were dissected. Pellet drug content at each time point was calculated from in-situ image analysis, confirmed by HPLC, and was plotted as cumulative drug release from the cylinders (FIG. 21C).

[8] = system: skin surrounding the injection sites; test: Rat study with spray coated substrates injected into the dorsal subcutaneous space; assay type: in vivo, male SD rats; conditions: highest coating amount (23.3 μg dexamethasone), day 14
Experimental: Coatings of Compound 1 in various dexamethasone amounts (1.4-23.3 μg) were spray coated onto substrates as described in Example 4 and sterilized by ETO gas. Coated substrates were injected into the dorsal subcutaneous space of male SD rats with starting weights of 100-124 g (Envigo, Frederick, Md. USA). Animals were euthanized at 0, 3, 7 and 14 days and the skin surrounding the injection sites dissected. Coating remaining at each time point was quantified by HPLC.

device related fibrosis = test: Rat study of coated polymeric discs, collagenous capsule wall thickness (Masson's Trichrome); assay type: in vivo, female Wistar rats; conditions: drop coated discs, subcutaneous, day 7 and day 21, versus non-coated implants
Description: The coatings were dried at ambient conditions over night and sterilized using Ethylene oxide (ETO) gas. Coated substrates were then implanted into the dorsal subcutaneous space in female Wistar rats with starting weights of 250-290 g. Animals were euthanized at day 7 (inflammatory phase) and day 21 (fibrotic phase) to assess the tissue response to coated versus non-coated implants. The thickness of the collagenous capsule wall surrounding the implant was quantified by morphometric image analysis on cross-section of excised capsules with associated tissue that were stained with Masson's Trichrome.

Molecule | Number of recruited CD68 positive cells [1] | Coating retained over time ([2]; drop coated on SIBS and Dacron films (thicker, lower surface area coating)) | Coating retained over time ([2]; drop coated on fibrous Dacron mesh (thin, high surface area coating)) | Coating purity pre- and post-ETO sterilization ([3]; fibrous Dacron meshes, HPLC) | Drug release pre- and post-ETO sterilization ([3]; release in PBS at 37 C) | In vitro drug release profile [4] | Drug release profiles, heat press process versus spray coating process [5] | Drug release mechanism from extruded cylinders ([6]; cylinders extruded with 23G and 30G nozzles, PBS at 37 C) | Drug release from the coated surfaces ([6]; drop coated on SIBS, titanium, Dacron mesh, glass, PBS at 37 C) | Cumulative drug release from the cylinders in vivo [7] | Skin observation around the coated substrate [8] | Capsule wall diameter (fibrotic layer thickness) (device related fibrosis) | Cumulative drug release from the coated surface ([6]; drop coated from DCM onto glass vial, PBS at 37 C with buffer changes)
C[C@@H]1C[C@H]2[C@@H]3CCC4=CC(=O)C=C[C@]4(C)[C@@]3(F)[C@@H](O)C[C@]2(C)[C@@]1(O)C(=O)COC(=O)OCCOCCOCCOC(=O)OCC(=O)[C@@]1(O)[C@H](C)C[C@H]2[C@@H]3CCC4=CC(=O)C=C[C@]4(C)[C@@]3(F)[C@@H](O)C[C@@]21C [Compound 1, dexamethasone-triethylene glycol-dexamethasone] | reduced | lower and longer sustained release | quick release of coating from the surface | no changes | no changes in release properties | sustained release | similar | surface erosion | slow, sustained drug release | sustained dexamethasone release | Skin bleaching was noted | statistically thinner | 
dexamethasone-hexane-dexamethasone [Compound 4] |  |  |  |  |  |  |  |  |  |  |  | statistically thinner | 
hydrocortisone-triethylene glycol-hydrocortisone [Compound 2] |  |  |  |  |  |  |  |  |  |  |  |  | consistent drug release
